According to US11530193B2, “Kinase inhibitors” (The University of Manchester, priority 2018, dated 2022):
Read-outs that look alike come from different tables or passages of the source.

Assays:
CAMK1D [1] = molecular target: T1, CAMK1D (Homo sapiens (Human), UniProt Q8IU85); test: Tm-Shift assay (thermal melting, SYPRO Orange); assay type: binding; conditions: for ΔTm at 10 µM: read-out: CAMK1d Tm-Shift; for CAMK1d Tm-Shift: compound 10 μM, protein 2 μM, ΔTm obs vs protein without ligand, triplicate
CAMK1D [2] = molecular target: T1, CAMK1D; test: Biochemical CaMK1D enzymatic activity assay (ADP-Glo Kinase Assay); conditions: 3 nM CaMK1D, 1 μM Calmodulin, […] Autocamtide-2, 10 μM ATP, 25C, 2 hours
SYK = SYK (Homo sapiens (Human), UniProt P43405); test: Tm-Shift assay (thermal melting, SYPRO Orange); assay type: binding;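 also: recombinant His-tagged protein made in Sf9 insect cells by baculovirus, in HEPES NaCl buffer, heated stepwise with fluorescence recorded at every temperature step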
[3] = compound 10 μM, protein 2 μM, ΔTm obs vs protein without ligand, triplicate

Row | SMILES | ΔTm at 10 µM (CAMK1D [1]) [°C] | IC50 (CAMK1D [2]) [µM] | SYK Tm-Shift (SYK; [3]) [°C] | CAMK1d Tm-Shift (CAMK1D [1]) [°C] | SYK Tm-Shift (SYK) [°C]
1 | CN(C)C(=O)c1cc(Nc2nc(N3CCC[C@H](N)C3)ncc2C(N)=O)cc(C(C)(C)C)c1 [Example 27, (S)-2-(3-aminopiperidin-1-yl)-4-((3-(tert-butyl)-5-(dimethylcarbamoyl)phenyl)amino) pyrimidine-5-carboxamide] |  |  |  | 12.5 | 0.4
2 | CC1(C)COCCN1C(=O)c1cccc(Nc2nc(N3CCC[C@H](N)C3)ncc2C(N)=O)c1 [Example 30, (S)-2-(3-aminopiperidin-1-yl)-4-((3-(3,3-dimethylmorpholine-4-carbonyl)phenyl)amino) pyrimidine-5-carboxamide] |  |  |  | 9.5 | 2.0
3 | CS(=O)(=O)c1cc(Nc2nc(N3CCC[C@H](N)C3)ncc2C(N)=O)cc(S(C)(=O)=O)c1.Cl [Example 9, (S)-2-(3-aminopiperidin-1-yl)-4-((3,5-bis(methylsulfonyl)phenyl)amino)pyrimidine-5-carboxamide hydrochloride] | 10.1 |  |  |  | 0.2
4 | CN(C)CCN(C)C(=O)c1cccc(Nc2nc(N3CCC[C@H](N)C3)ncc2C(N)=O)c1 [Example 25, (S)-2-(3-aminopiperidin-1-yl)-4-((3-((2-(dimethylamino)ethyl)(methyl)carbamoyl)phenyl)amino) pyrimidine-5-carboxamide] |  |  |  | 8.1 | 0.7
5 | CC(C)(C)c1cc(Nc2nc(N3CCC[C@H](N)C3)ncc2C(N)=O)cc(C(=O)N2CCCC2)c1 [Example 28, (S)-2-(3-aminopiperidin-1-yl)-4-((3-(tert-butyl)-5-(pyrrolidine-1-carbonyl)phenyl)amino)pyrimidine-5-carboxamide] | 11.8 |  | 0.5 |  | 

Now from value to molecule, other results behind:

Row | ΔTm at 10 µM (CAMK1D [1]) [°C] | IC50 (CAMK1D [2]) [µM] | SYK Tm-Shift (SYK; [3]) [°C] | SMILES | CAMK1d Tm-Shift (CAMK1D [1]) [°C] | SYK Tm-Shift (SYK) [°C]
6 | 9.9 | 0.01 |  | NC(=O)c1cnc(N2CCC[C@H](N)C2)nc1Nc1cc(-c2ccccc2)c2cn[nH]c2c1 [Example 60, (S)-2-(3-aminopiperidin-1-yl)-4-((4-phenyl-1H-indazol-6-yl)amino)pyrimidine-5-carboxamide] |  | 
7 | 10.9 |  | −0.3 | Cc1ccccc1-c1cc(Nc2nc(N3CCC[C@H](N)C3)ncc2C(N)=O)cc(C(=O)N2CCOCC2)c1 [Example 44, (S)-2-(3-aminopiperidin-1-yl)-4-((2′-methyl-5-(morpholine-4-carbonyl)-[1,1′-biphenyl]-3-yl)amino)pyrimidine-5-carboxamide] |  | 
8 | 11.2 |  | 2.1 | CC1(C)COCCN1C(=O)c1cc(Nc2nc(N3CCC[C@H](N)C3)ncc2C(N)=O)cc(C(F)(F)F)c1 [Example 32, (S)-2-(3-aminopiperidin-1-yl)-4-((3-(3,3-dimethylmorpholine-4-carbonyl)-5-(trifluoromethyl)phenyl)amino)pyrimidine-5-carboxamide] |  | 
9 | 12.6 |  | 4.6 | COC(=O)c1cc(Nc2nc(N3CCC[C@H](N)C3)ncc2C(N)=O)cc(C(C)(C)C#N)c1 [Example 45, Methyl (S)-3-((2-(3-aminopiperidin-1-yl)-5-carbamoylpyrimidin-4-yl)amino)-5-(2-cyanopropan-2-yl)benzoate] |  | 
10 | 12.4 |  | 0.3 | CC(C)(C)c1cc(Nc2nc(N3CCC[C@H](N)C3)ncc2C(N)=O)cc(C(=O)N2CCOCC2)c1 [Example 29, (S)-2-(3-aminopiperidin-1-yl)-4-((3-(tert-butyl)-5-(morpholine-4-carbonyl)phenyl)amino)pyrimidine-5-carboxamide] |  | 
11 | 10.7 |  | 0.3 | CNS(=O)(=O)c1cc(Nc2nc(Cl)ncc2C(N)=O)cc(C(F)(F)F)c1 [Example 108, 2-chloro-4-((3-(N-methylsulfamoyl)-5-(trifluoromethyl)phenyl)amino)pyrimidine-5-carboxamide] |  | 
